Measured values reported in paper PMC11247499, “2,8-Disubstituted-1,5-naphthyridines as Dual Inhibitors of Plasmodium falciparum Phosphatidylinositol-4-kinase and Hemozoin Formation with In Vivo Efficacy” (Journal of Medicinal Chemistry, 2024).
Converted amounts (≈) assume the structure as drawn. “And” between values parts separate entries of the source, which are not always exact repeats. Equal entries are not always repeated. Where two headings read alike, the source gives them in different places.

Columns and labels:
PvPI4K = PvPI4K (Plasmodium vivax, UniProt A5KB26); assay: biochemical
Sequence of PvPI4K (A5KB26 entry or part of it): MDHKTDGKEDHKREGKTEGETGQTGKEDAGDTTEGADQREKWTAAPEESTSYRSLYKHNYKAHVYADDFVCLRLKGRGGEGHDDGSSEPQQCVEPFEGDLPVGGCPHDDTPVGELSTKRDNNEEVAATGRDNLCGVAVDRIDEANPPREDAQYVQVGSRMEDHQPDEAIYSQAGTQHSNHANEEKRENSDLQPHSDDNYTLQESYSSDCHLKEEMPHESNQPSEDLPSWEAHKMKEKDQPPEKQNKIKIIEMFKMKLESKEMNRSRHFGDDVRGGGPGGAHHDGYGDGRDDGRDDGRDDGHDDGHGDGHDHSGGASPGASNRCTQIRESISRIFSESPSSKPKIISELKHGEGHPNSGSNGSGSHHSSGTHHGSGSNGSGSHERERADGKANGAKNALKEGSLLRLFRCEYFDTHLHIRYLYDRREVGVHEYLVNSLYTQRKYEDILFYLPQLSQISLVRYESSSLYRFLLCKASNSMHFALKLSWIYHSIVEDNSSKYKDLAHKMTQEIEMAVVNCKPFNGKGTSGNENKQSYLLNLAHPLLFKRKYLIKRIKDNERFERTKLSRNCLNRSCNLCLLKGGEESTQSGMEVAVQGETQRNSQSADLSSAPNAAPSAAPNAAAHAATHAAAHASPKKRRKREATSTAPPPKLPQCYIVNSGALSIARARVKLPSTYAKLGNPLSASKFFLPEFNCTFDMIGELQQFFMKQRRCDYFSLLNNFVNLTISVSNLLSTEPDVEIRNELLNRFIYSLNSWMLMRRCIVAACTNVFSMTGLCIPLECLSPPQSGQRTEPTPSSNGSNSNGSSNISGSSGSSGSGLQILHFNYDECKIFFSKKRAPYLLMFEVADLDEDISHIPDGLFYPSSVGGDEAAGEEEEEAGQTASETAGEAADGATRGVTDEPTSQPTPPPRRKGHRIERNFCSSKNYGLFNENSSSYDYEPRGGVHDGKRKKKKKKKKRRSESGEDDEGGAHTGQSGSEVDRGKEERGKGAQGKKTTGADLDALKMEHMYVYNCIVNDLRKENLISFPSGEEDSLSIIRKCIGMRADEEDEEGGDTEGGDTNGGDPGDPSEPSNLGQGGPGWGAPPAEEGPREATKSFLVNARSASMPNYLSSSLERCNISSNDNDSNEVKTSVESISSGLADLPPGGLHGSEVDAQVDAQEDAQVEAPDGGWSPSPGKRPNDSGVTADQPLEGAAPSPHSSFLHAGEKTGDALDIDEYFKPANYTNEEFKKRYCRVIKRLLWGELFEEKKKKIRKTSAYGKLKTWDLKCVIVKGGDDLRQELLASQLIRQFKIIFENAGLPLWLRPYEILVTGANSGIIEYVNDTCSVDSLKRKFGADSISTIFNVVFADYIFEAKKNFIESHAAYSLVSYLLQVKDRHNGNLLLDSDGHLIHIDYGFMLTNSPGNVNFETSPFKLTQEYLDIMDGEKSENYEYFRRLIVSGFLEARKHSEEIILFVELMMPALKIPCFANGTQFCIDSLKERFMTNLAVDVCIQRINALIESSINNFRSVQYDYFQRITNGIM

[1] = tested on: P. falciparum NF54 strain; assay: Antiplasmodial activity, parasite lactate dehydrogenase assay, NF54; assay type: cell-based, Plasmodium falciparum; settings: parasite lactate dehydrogenase assay over 72 h, read-out: Pf IC50 ± SD NF54
[2] = tested on: Chinese Hamster Ovary (CHO) cell line; assay: cells; assay type: cell-based; settings: Cricetulus griseus, CHO, read-out: CHO IC50
[3] = tested on: P. falciparum PI4K conditional knockdown line; assay: microbe, parasite or virus in culture; assay type: cell-based, Plasmodium falciparum; settings: for IC50: Plasmodium falciparum
LogD shake-flask = assay type: physicochemical; settings: n-octanol/phosphate buffer (1:1), phosphate buffer (pH 7.4) / n-octanol
cytochrome P450 2C9 = cytochrome P450 2C9 (Homo sapiens, UniProt P11712); assay: Cytochrome P450 inhibition, 2C9; assay type: in vitro ADME
cytochrome P450 3A4 = cytochrome P450 3A4 (Homo sapiens, UniProt P08684); assay: Cytochrome P450 inhibition, 3A4; assay type: in vitro ADME
Sequence of cytochrome P450 3A4 (P08684 whole entry): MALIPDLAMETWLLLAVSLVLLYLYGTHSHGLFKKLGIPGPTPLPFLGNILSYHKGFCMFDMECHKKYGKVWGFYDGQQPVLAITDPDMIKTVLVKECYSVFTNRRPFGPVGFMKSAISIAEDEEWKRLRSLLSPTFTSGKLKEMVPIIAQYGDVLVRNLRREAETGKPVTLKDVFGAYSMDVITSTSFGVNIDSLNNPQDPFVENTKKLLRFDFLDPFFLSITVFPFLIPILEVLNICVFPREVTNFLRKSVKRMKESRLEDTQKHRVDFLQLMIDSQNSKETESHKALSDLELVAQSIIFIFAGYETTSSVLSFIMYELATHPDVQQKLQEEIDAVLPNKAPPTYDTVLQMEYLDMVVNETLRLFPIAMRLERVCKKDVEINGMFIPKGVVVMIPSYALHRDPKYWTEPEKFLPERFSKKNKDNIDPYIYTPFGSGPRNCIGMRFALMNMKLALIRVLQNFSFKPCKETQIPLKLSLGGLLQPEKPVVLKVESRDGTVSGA

cytochrome P450 2C19 = cytochrome P450 2C19 (Homo sapiens, UniProt P33261); assay: Cytochrome P450 inhibition, 2C19; assay type: in vitro ADME
Caco-2 permeability = assay type: in vitro ADME; settings: human
[4] = Plasma protein binding, human; assay type: in vitro ADME; settings: pooled human plasma, read-out: PPB fu, human
[5] = In vitro microsomal stability, human; assay type: in vitro ADME; settings: pooled human liver microsomes, pH 7.4, read-out: microsomal CLint, app human
[6] = In vitro microsomal stability, rat; assay type: in vitro ADME; settings: rat liver microsomes, pH 7.4, read-out: microsomal CLint, app rat
[7] = In vitro microsomal stability, mouse; assay type: in vitro ADME; settings: mouse liver microsomes, pH 7.4, read-out: microsomal CLint, app mouse
[8] = Mouse pharmacokinetic studies; settings: male, BalbC; for Vd at 24 h / half-life at 24 h / bioavailability at 24 h: in vivo; for Vd at 24 h / half-life at 24 h / in vivo mouse CLb: iv, 2 mg/kg; for bioavailability at 24 h: po
HuPI3Kα = HuPI3Kα (Homo sapiens, UniProt P42336); assay: Human kinase inhibition, HuPI3Kα; settings: read-out: HuPI3Kα, IC50
Sequence of HuPI3Kα (P42336 whole entry): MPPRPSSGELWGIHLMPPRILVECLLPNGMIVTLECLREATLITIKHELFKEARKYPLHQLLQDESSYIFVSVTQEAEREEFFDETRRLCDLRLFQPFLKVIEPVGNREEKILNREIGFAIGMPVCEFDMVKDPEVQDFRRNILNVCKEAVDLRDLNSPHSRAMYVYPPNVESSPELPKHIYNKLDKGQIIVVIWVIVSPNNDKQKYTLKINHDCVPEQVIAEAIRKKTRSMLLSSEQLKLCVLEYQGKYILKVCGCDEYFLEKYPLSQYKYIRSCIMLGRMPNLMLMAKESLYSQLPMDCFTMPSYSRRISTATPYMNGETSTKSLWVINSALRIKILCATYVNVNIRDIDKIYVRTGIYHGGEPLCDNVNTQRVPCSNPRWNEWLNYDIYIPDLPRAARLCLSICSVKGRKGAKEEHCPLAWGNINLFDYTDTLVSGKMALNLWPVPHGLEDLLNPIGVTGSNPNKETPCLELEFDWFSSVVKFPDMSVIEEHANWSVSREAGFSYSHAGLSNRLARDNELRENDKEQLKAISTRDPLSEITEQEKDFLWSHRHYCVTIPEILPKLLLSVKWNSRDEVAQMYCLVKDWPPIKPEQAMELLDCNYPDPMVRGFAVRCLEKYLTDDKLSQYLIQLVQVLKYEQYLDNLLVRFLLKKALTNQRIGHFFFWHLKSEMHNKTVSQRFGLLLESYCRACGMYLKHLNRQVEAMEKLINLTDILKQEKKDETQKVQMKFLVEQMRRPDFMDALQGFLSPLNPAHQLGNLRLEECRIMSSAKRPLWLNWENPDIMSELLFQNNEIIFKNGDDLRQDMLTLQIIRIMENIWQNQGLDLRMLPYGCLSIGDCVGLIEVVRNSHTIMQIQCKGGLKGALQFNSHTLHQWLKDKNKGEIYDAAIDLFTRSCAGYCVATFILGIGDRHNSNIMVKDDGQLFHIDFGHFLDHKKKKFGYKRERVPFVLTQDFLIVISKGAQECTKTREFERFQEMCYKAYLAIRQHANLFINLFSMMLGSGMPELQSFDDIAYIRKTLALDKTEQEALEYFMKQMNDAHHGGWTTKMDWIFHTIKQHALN
Sequence of HuPI3Kα (P27986 whole entry partner): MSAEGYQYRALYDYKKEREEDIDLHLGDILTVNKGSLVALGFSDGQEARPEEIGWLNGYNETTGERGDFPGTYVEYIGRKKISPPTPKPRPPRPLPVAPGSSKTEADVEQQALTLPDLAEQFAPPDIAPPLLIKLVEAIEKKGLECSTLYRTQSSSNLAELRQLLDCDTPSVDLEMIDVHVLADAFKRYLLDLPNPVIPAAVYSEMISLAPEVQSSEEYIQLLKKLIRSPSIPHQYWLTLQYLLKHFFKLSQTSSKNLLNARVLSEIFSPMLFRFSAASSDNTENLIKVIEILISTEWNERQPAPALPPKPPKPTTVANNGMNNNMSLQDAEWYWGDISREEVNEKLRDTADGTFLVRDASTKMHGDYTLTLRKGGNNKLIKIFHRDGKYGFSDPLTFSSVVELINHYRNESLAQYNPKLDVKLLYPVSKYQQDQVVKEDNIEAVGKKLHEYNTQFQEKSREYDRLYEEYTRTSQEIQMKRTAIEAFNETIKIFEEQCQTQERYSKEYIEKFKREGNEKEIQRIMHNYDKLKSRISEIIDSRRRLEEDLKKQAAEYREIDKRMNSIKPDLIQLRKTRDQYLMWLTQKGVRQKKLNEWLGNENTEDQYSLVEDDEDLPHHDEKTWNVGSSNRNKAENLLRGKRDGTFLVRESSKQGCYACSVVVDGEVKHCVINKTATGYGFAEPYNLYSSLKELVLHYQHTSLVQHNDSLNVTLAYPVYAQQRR

HuPI4Kβ = HuPI4Kβ (Homo sapiens, UniProt Q9UBF8); assay: Human kinase inhibition, HuPI4Kβ; settings: read-out: HuPI4Kβ, IC50
Sequence of HuPI4Kβ (Q9UBF8 whole entry): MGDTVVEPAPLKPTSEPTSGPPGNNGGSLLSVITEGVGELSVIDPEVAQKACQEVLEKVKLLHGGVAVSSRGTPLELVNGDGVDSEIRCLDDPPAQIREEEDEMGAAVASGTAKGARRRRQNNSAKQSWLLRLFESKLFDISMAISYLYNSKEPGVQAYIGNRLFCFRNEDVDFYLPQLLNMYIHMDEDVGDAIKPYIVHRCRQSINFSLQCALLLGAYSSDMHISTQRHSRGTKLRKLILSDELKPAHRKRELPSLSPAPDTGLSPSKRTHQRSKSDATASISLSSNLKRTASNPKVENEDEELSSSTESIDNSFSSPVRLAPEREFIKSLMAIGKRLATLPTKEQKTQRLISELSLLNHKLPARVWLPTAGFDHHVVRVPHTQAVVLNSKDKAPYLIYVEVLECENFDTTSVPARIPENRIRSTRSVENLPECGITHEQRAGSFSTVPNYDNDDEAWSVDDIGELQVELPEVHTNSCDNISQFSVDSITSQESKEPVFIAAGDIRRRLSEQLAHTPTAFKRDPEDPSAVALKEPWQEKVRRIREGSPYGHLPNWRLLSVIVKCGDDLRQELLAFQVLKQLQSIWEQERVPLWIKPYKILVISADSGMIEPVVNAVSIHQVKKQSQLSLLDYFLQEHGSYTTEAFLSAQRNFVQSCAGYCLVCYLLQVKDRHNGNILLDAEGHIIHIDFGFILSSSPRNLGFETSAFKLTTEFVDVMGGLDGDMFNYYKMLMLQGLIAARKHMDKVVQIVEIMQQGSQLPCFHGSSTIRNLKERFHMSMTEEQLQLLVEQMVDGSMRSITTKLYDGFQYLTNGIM

HuMINK1 = HuMINK1 (Homo sapiens, UniProt Q8N4C8); assay: Human kinase inhibition, HuMINK1; settings: read-out: HuMINK1, IC50
HuMAP4K4 = HuMAP4K4 (Homo sapiens, UniProt O95819); assay: Human kinase inhibition, HuMAP4K4; settings: read-out: HuMAP4K4, IC50
β-hematin (βH) formation = assay: NP-40 mediated cell-free β-hematin assay; settings: read-out: β-hematin IC50
[9] = Solubility, miniaturized shake flask method
[10] = tested on: multidrug-resistant strain, K1; assay: Antiplasmodial activity, parasite lactate dehydrogenase assay, K1; assay type: cell-based, Plasmodium falciparum; settings: Plasmodium falciparum, K1, 72 h, parasite lactate dehydrogenase assay over 72 h; read-out: Pf IC50 ± SD K1
Dd2 = assay: microbe, parasite or virus in culture; assay type: cell-based; settings: Plasmodium falciparum, DD2, 72 h, read-out: Dd2 IC50 ± SD
Dd2_PI4K_CNV = assay: microbe, parasite or virus in culture; assay type: cell-based; settings: Plasmodium falciparum, 72 h, read-out: Dd2_PI4K_CNV IC50
[11] = tested on: P. falciparum male gametes; assay: microbe, parasite or virus in culture; settings: Plasmodium falciparum, 48 h, read-out: inhibition of exflagellation
hERG channels = molecular target: T1, hERG channels (Homo sapiens, UniProt Q12809); assay: hERG inhibition, QPatch automated patch clamp assay; assay type: cell-based; settings: CHO cells stably expressing the hERG channels
T1 construct: expressed in transfected cells; host or cells: CHO cells

pKa of piperidine N = assay type: physicochemical
in vivo = settings: zebrafish, in vivo
zebrafish embryos = assay: in vivo
[12] = Plasma protein binding, mouse; assay type: in vitro ADME; settings: read-out: PPB fu, mouse
[13] = purified recombinant PvPI4K, 10 μM ATP, ADP-Glo, mean of N ≥ 2, read-out: PvPI4K IC50 ± SD
[14] = Plasmodium falciparum, NF54, 72 h
[15] = cell-free NP-40 detergent-mediated assay, n = 2

## FC(F)(F)c1ccc(-c2ccc3nccc(N[C@@H]4CCNC4)c3n2)cn1 [Compound 16, N-[(3R)-Pyrrolidin-3-yl]-6-[6-(trifluoromethyl)pyridin-3-yl]-1,5-naphthyridin-4-amine]
PvPI4K; [13]
  IC50: 66 ± 21 nM
[1]; [14]
  IC50: 86 ± 16 nM
[2]; MTT assay over 48h
  IC50: > 50000 nM
[3]; 72 h, read-out: ABS IC50 for PfPI4K cKD, N=1, +aTc, experiment N=1, +aTc (500 nM, control conditions), 72 hours
  IC50: 71 nM
[3]; 72 h, read-out: ABS IC50 for PfPI4K cKD, N=1, no aTc, experiment N=1, no aTc (PI4K knockdown), 72 hours
  IC50: 72 nM
[3]; 72 h, read-out: ABS IC50 for PfPI4K cKD, N=2, +aTc, experiment N=2, +aTc (500 nM, control conditions), 72 hours
  IC50: 118 nM
[3]; 72 h, read-out: ABS IC50 for PfPI4K cKD, N=2, no aTc, experiment N=2, no aTc (PI4K knockdown), 72 hours
  IC50: 118 nM
[3]; 72 h, read-out: ABS IC50 for PfPI4K cKD, N=3, +aTc, experiment N=3, +aTc (500 nM, control conditions), 72 hours
  IC50: 63 nM
[3]; 72 h, read-out: ABS IC50 for PfPI4K cKD, N=3, no aTc, experiment N=3, no aTc (PI4K knockdown), 72 hours
  IC50: 72 nM
[3]; read-out: ABS IC50 for PfPI4K cKD, Mean + SD, +aTc, mean of N=3, +aTc (control conditions)
  IC50: 84 ± 30 nM
[3]; read-out: ABS IC50 for PfPI4K cKD, Mean + SD, no aTc, mean of N=3, no aTc (PI4K knockdown)
  IC50: 88 ± 27 nM
[3]; experiment N=1, +aTc vs no aTc
  ABS IC50 for PfPI4K cKD, N=1, fold shift: 0.98 fold
[3]; experiment N=2, +aTc vs no aTc
  ABS IC50 for PfPI4K cKD, N=2, fold shift: 1.00 fold
[3]; experiment N=3, +aTc vs no aTc
  ABS IC50 for PfPI4K cKD, N=3, fold shift: 0.88 fold
[3]; mean, +aTc vs no aTc
  ABS IC50 for PfPI4K cKD, mean fold shift (fold decrease in IC50 on knockdown): 0.95 fold
LogD shake-flask
  logD at 3 h: 0.96
Cytochrome P450 2C9
  IC50: > 20000 nM
Cytochrome P450 3A4
  IC50: > 20000 nM
Cytochrome P450 2C19
  IC50: > 20000 nM
Caco-2 permeability
  efflux ratio: 13
Caco-2 permeability; A > B
  Papp A→B: 2.6 ×10⁻⁶ cm/s
[4]
  fraction unbound at 5 h, 5 µM: 0.18
[5]
  CLint scaled at 1 µM: < 13 mL/min/kg
[6]
  CLint scaled at 1 µM: < 21 mL/min/kg
[7]
  CLint scaled at 1 µM: < 467 mL/min/kg
[8]
  in vivo mouse CLu: 76 mL/min/kg
  Vd at 24 h: 3.1 L/kg
  half-life at 24 h: 2.7 h
  bioavailability at 24 h: 96%
  in vivo mouse CLb: 13.70 mL/min/kg
HuPI3Kα
  IC50: 8900 nM
HuPI4Kβ
  IC50: > 10000 nM
HuMINK1
  IC50: > 10000 nM
HuMAP4K4
  IC50: > 10000 nM
β-hematin (βH) formation; [15]
  IC50: 32000 nM and < 60000 nM
[9]; PBS, pH 6.5
  solubility at 20 h: 195 µM (≈ 70.1 µg/mL)
[9]; aqueous solution
  solubility at 20 h: 200 µM (≈ 71.9 µg/mL)

## O[C@H]1CNCC[C@@H]1Nc1ccnc2ccc(-c3ccc(C(F)(F)F)nc3)nc12 (racemic) [Compound 28, rac-trans-4-[[6-[6-(Trifluoromethyl)pyridin-3-yl]-1,5-naphthyridin-4-yl]amino]piperidin-3-ol]
PvPI4K; [13]
  IC50: 967 ± 163 nM
[1]; [14]
  IC50: 168 ± 55 nM
[10]
  IC50: 624 ± 76 nM
[2]; MTT assay over 48h
  IC50: > 50000 nM
Dd2
  IC50: 212 ± 127 nM
Dd2_PI4K_CNV
  IC50: 182 ± 44 nM
β-hematin (βH) formation; [15]
  IC50: 95000 ± 16000 nM
[9]; aqueous solution
  solubility at 20 h: 200 µM (≈ 77.9 µg/mL)

## NS(=O)(=O)c1cccc(-c2ccc3nccc(-c4ccnc(C(F)(F)F)c4)c3n2)c1 [Compound 1]
[2]; 48 h
  IC50: 6000 nM
[11]
  inhibition at 2 µM: 60%
β-hematin (βH) formation
  IC50: > 500000 nM

## FC(F)CN1CCC(Nc2ccnc3ccc(-c4ccc(C(F)(F)F)nc4)nc23)CC1 [Compound 23, N-[1-(2,2-Difluoroethyl)piperidin-4-yl]-6-[6-(trifluoromethyl)pyridin-3-yl]-1,5-naphthyridin-4-amine]
PvPI4K
  IC50: 53 ± 28 nM
[1]; [14]
  IC50: 880 ± 34 nM
physchem
  solubility: 20 µM (≈ 8.75 µg/mL)
β-hematin (βH) formation; [15]
  IC50: 30000 nM and < 60000 nM

## O[C@H]1CNCC[C@H]1Nc1ccnc2ccc(-c3ccc(C(F)(F)F)nc3)nc12 (relative stereo) [Compound 27, rac-cis-4-[[6-[6-(Trifluoromethyl)pyridin-3-yl]-1,5-naphthyridin-4-yl]amino]piperidin-3-ol]
PvPI4K; [13]
  IC50: 370 ± 175 nM
[1]; [14]
  IC50: 140 nM
[1]
  IC50: 130 ± 24 nM
[10]
  IC50: 334 ± 147 nM
[2]; MTT assay over 48h
  IC50: 33000 nM
Dd2
  IC50: 437 ± 71 nM
Dd2_PI4K_CNV
  IC50: 381 ± 17 nM
hERG channels
  IC50: 24500 nM
LogD shake-flask
  logD at 3 h: 1.02
pKa of piperidine N
  pKa: 8.99
β-hematin (βH) formation; [15]
  IC50: 140000 ± 7000 nM
[9]; aqueous solution
  solubility at 20 h: 200 µM (≈ 77.9 µg/mL)

## CCN(CC)c1ccc(C=O)cc1 [DEAB, Diethylaminobenzaldehyde]
In vivo; 50% larvae population show a teratogenic phenotype
  AC50: 1000 nM
In vivo; concentration at which 50% of larvae die at 96 h post fertilization
  LC50 at 96 h: 4600 nM
Zebrafish embryos; classification
  teratogen: yes
Zebrafish embryos; ratio between LC50 and AC50, >3 classifies as teratogen
  TI (teratogenic index): 4.6

## CN1CCC(Nc2ccnc3ccc(-c4ccc(C(F)(F)F)nc4)nc23)CC1 [Compound 21, N-(1-Methylpiperidin-4-yl)-6-[6-(trifluoromethyl)pyridin-3-yl]-1,5-naphthyridin-4-amine]
PvPI4K; [13]
  IC50: 175 ± 82 nM
[1]; [14]
  IC50: 52 ± 14 nM
[10]
  IC50: 162 ± 4 nM
[2]; MTT assay over 48h
  IC50: > 50000 nM
LogD shake-flask
  logD at 3 h: 1.86
[4]
  fraction unbound at 5 h, 5 µM: 0.5
[12]
  fraction unbound at 5 h, 5 µM: 0.3
[5]
  CLint scaled at 1 µM: < 10 mL/min/kg
[6]
  CLint scaled at 1 µM: < 21 mL/min/kg
[7]
  CLint scaled at 1 µM: < 46 mL/min/kg
[8]
  in vivo mouse CLu: 22 mL/min/kg
  Vd at 24 h: 12 L/kg
  half-life at 24 h: 16 h
  bioavailability at 24 h: 99%
  in vivo mouse CLb: 9.90 mL/min/kg
β-hematin (βH) formation; [15]
  IC50: 35000 nM and < 60000 nM
[9]; PBS, pH 6.5
  solubility at 20 h: 160 µM (≈ 62 µg/mL)
[9]; aqueous solution
  solubility at 20 h: 160 µM (≈ 62 µg/mL)

## CN1CCC(Nc2ccnc3ccc(-c4cccnc4C(F)(F)F)nc23)CC1 [Compound 30, N-(1-Methylpiperidin-4-yl)-6-[2-(trifluoromethyl)pyridin-3-yl]-1,5-naphthyridin-4-amine]
PvPI4K; [13]
  IC50: 170 ± 38 nM
[1]; [14]
  IC50: 270 ± 96 nM
[10]
  IC50: 300 ± 11 nM
[2]; MTT assay over 48h
  IC50: > 50000 nM
β-hematin (βH) formation; [15]
  IC50: 75000 ± 6000 nM
[9]; aqueous solution
  solubility at 20 h: 200 µM (≈ 77.5 µg/mL)
